Measured values published in ChEMBL document CHEMBL1140970, “Synthesis and in vitro anti-Helicobacter pylori activity of N-[5-(5-nitro-2-heteroaryl)-1,3,4-thiadiazol-2-yl]thiomorpholines and related compounds” (2008).

What was measured:
Type in all cases: functional
Conditions in all cases: read-out: IZ
[1] = system: Helicobacter pylori; experiment: Antibacterial activity against Helicobacter pylori clinical isolates at 8 ug/disk after 3 to 5 days by filter paper disk diffusion method
[2] = system: Helicobacter pylori; experiment: Antibacterial activity against metronidazole-sensitive Helicobacter pylori at 8 ug/disk after 3 to 5 days by filter paper disk diffusion method
[3] = system: Helicobacter pylori; experiment: Antibacterial activity against metronidazole-resistant Helicobacter pylori at 8 ug/disk after 3 to 5 days by filter paper disk diffusion method
[4] = system: Helicobacter pylori; experiment: Antibacterial activity against Helicobacter pylori clinical isolates at 0.5 ug/disk after 3 to 5 days by filter paper disk diffusion method
[5] = system: Helicobacter pylori; experiment: Antibacterial activity against metronidazole-sensitive Helicobacter pylori at 32 ug/disk after 3 to 5 days by filter paper disk diffusion method
[6] = system: Helicobacter pylori; experiment: Antibacterial activity against metronidazole-resistant Helicobacter pylori at 16 ug/disk after 3 to 5 days by filter paper disk diffusion method
[7] = system: Helicobacter pylori; experiment: Antibacterial activity against Helicobacter pylori clinical isolates at 32 ug/disk after 3 to 5 days by filter paper disk diffusion method
[8] = system: Helicobacter pylori; experiment: Antibacterial activity against Helicobacter pylori clinical isolates at 16 ug/disk after 3 to 5 days by filter paper disk diffusion method
[9] = system: Helicobacter pylori; experiment: Antibacterial activity against Helicobacter pylori clinical isolates at 1 ug/disk after 3 to 5 days by filter paper disk diffusion method
[10] = system: Helicobacter pylori; experiment: Antibacterial activity against Helicobacter pylori clinical isolates at 2 ug/disk after 3 to 5 days by filter paper disk diffusion method
[11] = system: Helicobacter pylori; experiment: Antibacterial activity against Helicobacter pylori clinical isolates at 4 ug/disk after 3 to 5 days by filter paper disk diffusion method
[12] = system: Helicobacter pylori; experiment: Antibacterial activity against metronidazole-sensitive Helicobacter pylori at 16 ug/disk after 3 to 5 days by filter paper disk diffusion method
[13] = system: Helicobacter pylori; experiment: Antibacterial activity against metronidazole-resistant Helicobacter pylori at 32 ug/disk after 3 to 5 days by filter paper disk diffusion method

SMILES | zone of inhibition at 8 µg/disc [1] | zone of inhibition at 8 µg/disc [2] | zone of inhibition at 8 µg/disc [3] | zone of inhibition at 0.5 µg/disc [4] | zone of inhibition at 32 µg/disc [5] | zone of inhibition at 16 µg/disc [6] | zone of inhibition at 32 µg/disc [7] | zone of inhibition at 16 µg/disc [8] | zone of inhibition at 1 µg/disc [9] | zone of inhibition at 2 µg/disc [10] | zone of inhibition at 4 µg/disc [11] | zone of inhibition at 16 µg/disc [12] | zone of inhibition at 32 µg/disc [13]
Cc1ncc([N+](=O)[O-])n1CCO [METRONIDAZOLE] | 16.3 mm | 18 mm | 11 mm | – | – | – | – | – | – | – | – | – | –
O=[N+]([O-])c1ccc(-c2nnc(N3CCCCC3)s2)o1 | 30.5 mm | 28 mm | 27 mm | 13.7 mm | 35 mm | 32 mm | 36.5 mm | 33.5 mm | 19 mm | 24.9 mm | 27.4 mm | 32 mm | 34 mm
O=[N+]([O-])c1ccc(-c2nnc(N3CCSCC3)s2)o1 | 30.1 mm | 32 mm | 26 mm | 10.8 mm | 41 mm | 37 mm | 36.9 mm | 32.9 mm | 18.3 mm | 23.4 mm | 27.7 mm | 35 mm | 42 mm
O=[N+]([O-])c1ccc(-c2nnc(N3CC[S+]([O-])CC3)s2)s1 | 34.4 mm | 34 mm | 32 mm | 13.7 mm | 46 mm | 35 mm | 45 mm | 39.9 mm | 18.5 mm | 23.6 mm | 28.1 mm | 39 mm | 41 mm
O=[N+]([O-])c1ccc(-c2nnc(N3CCS(=O)(=O)CC3)s2)o1 | 36.1 mm | 43 mm | 41 mm | 16.6 mm | > 50 mm | 43 mm | 44.3 mm | 40.7 mm | 21 mm | 25.5 mm | 30.7 mm | 50 mm | 46 mm
Cn1c([N+](=O)[O-])cnc1-c1nnc(N2CC[S+]([O-])CC2)s1 | – | 6 mm | 6 mm | – | 25 mm | 15 mm | – | – | – | – | – | 19 mm | 21 mm
Cn1c([N+](=O)[O-])cnc1-c1nnc(N2CCS(=O)(=O)CC2)s1 | 30.2 mm | 32 mm | 27 mm | 10.6 mm | 45 mm | 36 mm | 37.3 mm | 33.9 mm | 14.9 mm | 19.3 mm | 25.9 mm | 40 mm | 40 mm
O=[N+]([O-])c1ccc(-c2nnc(N3CC[S+]([O-])CC3)s2)o1 | 31 mm | 35 mm | 35 mm | 7.3 mm | 46 mm | 40 mm | 41.9 mm | 37.1 mm | 13.4 mm | 19.9 mm | 25.4 mm | 41 mm | 43 mm
Cn1c([N+](=O)[O-])cnc1-c1nnc(N2CCSCC2)s1 | 27.4 mm | 27 mm | 24 mm | 9.9 mm | 34 mm | 27 mm | 32.4 mm | 30.4 mm | 15.6 mm | 20 mm | 23.7 mm | 31 mm | 30 mm
O=[N+]([O-])c1ccc(-c2nnc(N3CCSCC3)s2)s1 | – | 16 mm | 16 mm | – | 22 mm | 19 mm | – | – | – | – | – | 18 mm | 21 mm
Cn1c([N+](=O)[O-])cnc1-c1nnc(N2CCOCC2)s1 | 27.6 mm | 25 mm | 26 mm | 13.7 mm | 32 mm | 31 mm | 33.5 mm | 30.6 mm | 19.4 mm | 21.3 mm | 22.5 mm | 31 mm | 33 mm
O=[N+]([O-])c1ccc(-c2nnc(N3CCOCC3)s2)o1 | 32.1 mm | 33 mm | 30 mm | 10.8 mm | 42 mm | 33 mm | 40 mm | 36.6 mm | 17.5 mm | 23.7 mm | 28.4 mm | 36 mm | 48 mm
O=[N+]([O-])c1ccc(-c2nnc(N3CCOCC3)s2)s1 | – | 6 mm | 6 mm | – | 15 mm | 6 mm | – | – | – | – | – | 6 mm | 6 mm
O=[N+]([O-])c1ccc(-c2nnc(N3CCS(=O)(=O)CC3)s2)s1 | – | 6 mm | 6 mm | – | 16 mm | 6 mm | – | – | – | – | – | 6 mm | 6 mm
CC1(C)S[C@@H]2[C@H](NC(=O)[C@H](N)c3ccc(O)cc3)C(=O)N2[C@H]1C(=O)O [AMOXICILLIN] | – | – | – | – | – | – | – | – | 24.5 mm | – | – | – | –
O=[N+]([O-])c1ccc(-c2nnc(N3CCCCC3)s2)s1 | – | 6 mm | 6 mm | – | 6 mm | 6 mm | – | – | – | – | – | 6 mm | 6 mm
Cn1c([N+](=O)[O-])cnc1-c1nnc(N2CCCCC2)s1 | – | 6 mm | 6 mm | – | 6 mm | 6 mm | – | – | – | – | – | 6 mm | 6 mm
